Data reported in ChEMBL document CHEMBL1148822, “Principal component analysis differentiates the receptor binding profiles of three antipsychotic drug candidates from current antipsychotic drugs” (J Med Chem, 2007).
Calls of active or inactive are those of the source. The calls are words filed in the database; no cut-off is given here.

Key:
[1] = biological target: T1, 5-hydroxytryptamine receptor 2B (Homo sapiens, UniProt P41595); assay: biochemical
Description: (§1) Displacement of [3H]LSD from 5HT2B receptor expressed in CHO cells

[2] = biological target: T2, 5-hydroxytryptamine receptor 2C (Homo sapiens) (UniProt P28335); conditions: CHO
T2 sequence (whole entry): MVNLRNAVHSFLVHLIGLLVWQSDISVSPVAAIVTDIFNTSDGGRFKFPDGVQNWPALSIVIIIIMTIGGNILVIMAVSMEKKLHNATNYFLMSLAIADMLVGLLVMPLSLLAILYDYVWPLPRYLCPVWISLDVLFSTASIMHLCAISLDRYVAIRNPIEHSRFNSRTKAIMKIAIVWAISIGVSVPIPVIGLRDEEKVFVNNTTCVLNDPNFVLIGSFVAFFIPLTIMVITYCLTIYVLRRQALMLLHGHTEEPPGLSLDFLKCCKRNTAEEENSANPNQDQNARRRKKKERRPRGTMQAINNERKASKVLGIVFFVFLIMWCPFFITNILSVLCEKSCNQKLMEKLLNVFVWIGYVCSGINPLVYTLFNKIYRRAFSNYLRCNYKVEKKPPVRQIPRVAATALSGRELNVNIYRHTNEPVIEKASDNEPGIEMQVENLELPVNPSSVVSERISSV
Description: (§2) Displacement of [3H]mesulergine from 5HT2C receptor expressed in CHO cells

[3] = biological target: Histamine H1 receptor (Cavia porcellus) (UniProt P31389); conditions: Cerebellum
Description: (§3) Displacement of [3H]pyrilamine from histaminergic H1 receptor guinea pig cerebellum

[4] = biological target: T3, Adrenergic receptor alpha-1 (Rattus norvegicus, UniProt P15823+P23944+P43140)
T3 sequence (P15823 whole entry): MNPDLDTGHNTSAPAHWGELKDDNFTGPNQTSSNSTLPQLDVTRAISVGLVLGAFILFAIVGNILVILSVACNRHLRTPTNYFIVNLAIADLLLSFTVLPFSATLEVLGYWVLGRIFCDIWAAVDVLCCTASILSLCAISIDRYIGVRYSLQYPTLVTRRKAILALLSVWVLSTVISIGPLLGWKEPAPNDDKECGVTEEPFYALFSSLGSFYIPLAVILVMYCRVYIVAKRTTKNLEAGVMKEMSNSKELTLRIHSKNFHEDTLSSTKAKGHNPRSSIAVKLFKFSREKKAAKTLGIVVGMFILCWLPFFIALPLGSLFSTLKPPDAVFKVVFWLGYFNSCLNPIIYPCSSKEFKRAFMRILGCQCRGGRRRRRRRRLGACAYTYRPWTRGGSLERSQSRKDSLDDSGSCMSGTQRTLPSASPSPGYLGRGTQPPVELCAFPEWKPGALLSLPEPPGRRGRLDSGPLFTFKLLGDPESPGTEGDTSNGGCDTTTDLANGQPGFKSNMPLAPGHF
T3 sequence (P23944 whole entry): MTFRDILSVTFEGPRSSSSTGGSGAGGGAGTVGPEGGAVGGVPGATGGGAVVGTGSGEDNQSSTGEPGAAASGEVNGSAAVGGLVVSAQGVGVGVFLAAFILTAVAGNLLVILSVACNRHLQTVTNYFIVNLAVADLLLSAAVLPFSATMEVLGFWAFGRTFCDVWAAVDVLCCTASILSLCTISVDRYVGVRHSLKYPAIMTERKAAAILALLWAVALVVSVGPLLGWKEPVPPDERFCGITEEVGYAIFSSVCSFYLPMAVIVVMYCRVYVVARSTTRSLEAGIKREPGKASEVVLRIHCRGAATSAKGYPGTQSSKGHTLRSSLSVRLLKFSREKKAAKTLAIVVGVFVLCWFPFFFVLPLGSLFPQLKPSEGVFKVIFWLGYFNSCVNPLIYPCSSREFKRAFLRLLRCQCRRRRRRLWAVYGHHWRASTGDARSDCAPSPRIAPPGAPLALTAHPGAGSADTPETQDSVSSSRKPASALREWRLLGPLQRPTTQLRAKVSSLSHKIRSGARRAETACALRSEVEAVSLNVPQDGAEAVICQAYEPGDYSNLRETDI
T3 sequence (P43140 whole entry): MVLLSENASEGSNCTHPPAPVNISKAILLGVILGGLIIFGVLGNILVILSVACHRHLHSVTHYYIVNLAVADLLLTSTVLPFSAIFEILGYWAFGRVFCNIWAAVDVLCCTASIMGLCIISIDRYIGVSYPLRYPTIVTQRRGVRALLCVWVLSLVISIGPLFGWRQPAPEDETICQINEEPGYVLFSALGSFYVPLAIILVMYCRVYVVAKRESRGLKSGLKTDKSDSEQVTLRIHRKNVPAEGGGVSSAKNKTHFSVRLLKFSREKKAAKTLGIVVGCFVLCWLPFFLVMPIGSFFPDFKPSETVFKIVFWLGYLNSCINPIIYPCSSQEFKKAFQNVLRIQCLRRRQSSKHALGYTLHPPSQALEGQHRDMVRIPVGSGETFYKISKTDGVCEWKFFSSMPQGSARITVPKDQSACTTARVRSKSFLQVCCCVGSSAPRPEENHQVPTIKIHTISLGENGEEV
Description: Displacement of [3H]prazosin from adrenergic alpha1 receptor in rat cerebral cortex

[5] = biological target: T4, 5-hydroxytryptamine receptor 6 (Homo sapiens, UniProt P50406); conditions: HEK293
Description: (§4) Displacement of [3H]LSD from human 5HT6 receptor expressed in HEK293 cells

[6] = biological target: Serotonin 3 (5-HT3) receptor; conditions: hek293
Description: Displacement of [3H]BLR-43694 from human 5HT3 receptor expressed in HEK293 cells

[7] = biological target: T5, 5-hydroxytryptamine receptor 1A (Homo sapiens, UniProt P08908); assay: biochemical
T5 sequence (P08908 whole entry): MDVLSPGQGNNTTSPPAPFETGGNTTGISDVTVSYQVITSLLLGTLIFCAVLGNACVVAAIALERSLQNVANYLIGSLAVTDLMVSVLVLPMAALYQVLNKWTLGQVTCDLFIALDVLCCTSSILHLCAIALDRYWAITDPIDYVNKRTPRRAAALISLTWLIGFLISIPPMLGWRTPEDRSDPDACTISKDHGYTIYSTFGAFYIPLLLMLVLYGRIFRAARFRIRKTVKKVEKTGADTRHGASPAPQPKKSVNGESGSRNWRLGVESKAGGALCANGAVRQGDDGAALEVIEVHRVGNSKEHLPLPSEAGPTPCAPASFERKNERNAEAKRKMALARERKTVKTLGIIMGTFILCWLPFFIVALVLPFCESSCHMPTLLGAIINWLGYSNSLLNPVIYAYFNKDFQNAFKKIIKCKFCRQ
Description: Displacement of [3H]8-OH-DPAT from human 5HT1A receptor expressed in CHO cells

[8] = biological target: T6, 5-hydroxytryptamine receptor 2C (Homo sapiens, UniProt P28335); assay: biochemical
T6 sequence (P28335 whole entry): T2 sequence (whole entry)
Description: as §2

D(4) dopamine receptor = biological target: T7, D(4) dopamine receptor (Homo sapiens, UniProt P21917); assay: biochemical
T7 sequence (P21917 whole entry): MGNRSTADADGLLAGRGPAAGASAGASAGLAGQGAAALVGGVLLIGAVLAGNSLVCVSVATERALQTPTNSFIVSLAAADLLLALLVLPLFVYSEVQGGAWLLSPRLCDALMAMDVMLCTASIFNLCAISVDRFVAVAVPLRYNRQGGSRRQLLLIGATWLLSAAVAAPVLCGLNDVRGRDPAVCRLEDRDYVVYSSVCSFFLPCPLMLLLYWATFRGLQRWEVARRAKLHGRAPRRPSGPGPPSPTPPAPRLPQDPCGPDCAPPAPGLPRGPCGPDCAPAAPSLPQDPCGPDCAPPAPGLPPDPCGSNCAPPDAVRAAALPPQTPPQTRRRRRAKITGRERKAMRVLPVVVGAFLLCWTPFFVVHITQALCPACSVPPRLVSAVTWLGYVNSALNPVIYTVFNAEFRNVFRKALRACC
Description: Displacement of [3H]spiperone from human dopamine D4.4 receptor expressed in CHO cells

[9] = biological target: Sodium-dependent serotonin transporter (Homo sapiens, UniProt P31645); assay: biochemical; type: cell-based, HEK293
Description: Displacement of [3H]paraxetine from human 5HT transporter expressed in HEK293 cells

[10] = biological target: T8, Adrenergic receptor alpha-2 (Rattus norvegicus, UniProt P22086+P19328+P22909)
T8 sequence (P22086 whole entry): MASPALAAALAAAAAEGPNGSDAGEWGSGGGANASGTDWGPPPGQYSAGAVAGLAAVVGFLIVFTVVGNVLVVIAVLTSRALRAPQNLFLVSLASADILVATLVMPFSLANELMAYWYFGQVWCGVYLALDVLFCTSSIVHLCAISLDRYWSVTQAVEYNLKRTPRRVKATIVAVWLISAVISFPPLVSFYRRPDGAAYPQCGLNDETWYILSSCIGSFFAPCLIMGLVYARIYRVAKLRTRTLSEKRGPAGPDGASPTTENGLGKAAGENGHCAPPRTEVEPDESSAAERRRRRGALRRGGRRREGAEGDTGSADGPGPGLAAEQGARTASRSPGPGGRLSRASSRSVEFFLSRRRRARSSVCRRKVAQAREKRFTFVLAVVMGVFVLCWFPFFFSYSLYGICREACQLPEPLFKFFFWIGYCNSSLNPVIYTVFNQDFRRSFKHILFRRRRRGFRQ
T8 sequence (P19328 whole entry): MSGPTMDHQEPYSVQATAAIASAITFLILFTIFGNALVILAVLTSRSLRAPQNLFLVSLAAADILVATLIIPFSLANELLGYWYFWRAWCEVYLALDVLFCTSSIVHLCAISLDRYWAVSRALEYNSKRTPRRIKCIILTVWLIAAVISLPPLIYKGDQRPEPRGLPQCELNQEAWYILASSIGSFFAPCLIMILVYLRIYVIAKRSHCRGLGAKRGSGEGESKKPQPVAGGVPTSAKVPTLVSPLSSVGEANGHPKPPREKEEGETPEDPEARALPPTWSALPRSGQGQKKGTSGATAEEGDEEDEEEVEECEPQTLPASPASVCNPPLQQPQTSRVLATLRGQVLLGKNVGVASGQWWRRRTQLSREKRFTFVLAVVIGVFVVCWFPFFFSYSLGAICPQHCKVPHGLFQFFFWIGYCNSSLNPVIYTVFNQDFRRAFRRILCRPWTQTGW
T8 sequence (P22909 whole entry): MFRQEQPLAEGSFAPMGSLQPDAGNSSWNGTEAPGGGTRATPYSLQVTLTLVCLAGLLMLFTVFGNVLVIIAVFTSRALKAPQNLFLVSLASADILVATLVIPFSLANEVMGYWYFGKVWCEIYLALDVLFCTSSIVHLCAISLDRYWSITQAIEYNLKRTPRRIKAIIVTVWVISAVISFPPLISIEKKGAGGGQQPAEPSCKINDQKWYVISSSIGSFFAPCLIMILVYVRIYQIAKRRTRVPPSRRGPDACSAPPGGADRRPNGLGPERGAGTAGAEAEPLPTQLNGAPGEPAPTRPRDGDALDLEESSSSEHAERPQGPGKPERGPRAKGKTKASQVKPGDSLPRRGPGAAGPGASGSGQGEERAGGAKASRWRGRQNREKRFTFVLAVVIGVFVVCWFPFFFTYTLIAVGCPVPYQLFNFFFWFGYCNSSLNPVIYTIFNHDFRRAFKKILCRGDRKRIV
Description: Displacement of [3H]RX 821002 from adrenergic alpha-2 receptor in rat cerebral cortex

[11] = biological target: 5-hydroxytryptamine receptor 7 (Homo sapiens, UniProt P34969); assay: biochemical
Description: Displacement of [3H]LSD from human 5HT7 receptor expressed in CHO cells

[12] = biological target: 5-hydroxytryptamine receptor 2A (Homo sapiens, UniProt P28223); assay: biochemical; type: cell-based, CHO
Description: Displacement of [3H]ketanserin from human 5HT2A receptor expressed in CHO cells

[13] = biological target: T4, 5-hydroxytryptamine receptor 6; assay: biochemical
Description: as §4

D(3) dopamine receptor = D(3) dopamine receptor (Homo sapiens, UniProt P35462); assay: biochemical
Description: Displacement of [3H]spiperone from human dopamine D3 receptor expressed in CHO cells

Histamine H1 receptor = Histamine H1 receptor (Cavia porcellus, UniProt P31389); assay: biochemical
Description: as §3

[14] = biological target: T1, 5-hydroxytryptamine receptor 2B; conditions: CHO
Description: as §1

T4 sequence (P50406 whole entry): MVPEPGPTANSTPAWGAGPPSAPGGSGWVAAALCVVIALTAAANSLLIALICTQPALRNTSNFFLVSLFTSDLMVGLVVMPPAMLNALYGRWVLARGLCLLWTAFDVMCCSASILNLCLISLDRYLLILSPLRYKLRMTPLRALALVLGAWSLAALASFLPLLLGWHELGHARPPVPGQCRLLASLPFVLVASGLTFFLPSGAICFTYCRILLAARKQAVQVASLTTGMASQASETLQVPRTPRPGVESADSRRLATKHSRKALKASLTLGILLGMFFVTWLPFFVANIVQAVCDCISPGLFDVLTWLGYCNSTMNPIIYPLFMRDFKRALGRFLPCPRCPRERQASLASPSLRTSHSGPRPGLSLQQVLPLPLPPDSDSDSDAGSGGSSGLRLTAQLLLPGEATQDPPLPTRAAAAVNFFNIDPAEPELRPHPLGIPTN
Chain of Histamine H1 receptor (P31389 whole entry): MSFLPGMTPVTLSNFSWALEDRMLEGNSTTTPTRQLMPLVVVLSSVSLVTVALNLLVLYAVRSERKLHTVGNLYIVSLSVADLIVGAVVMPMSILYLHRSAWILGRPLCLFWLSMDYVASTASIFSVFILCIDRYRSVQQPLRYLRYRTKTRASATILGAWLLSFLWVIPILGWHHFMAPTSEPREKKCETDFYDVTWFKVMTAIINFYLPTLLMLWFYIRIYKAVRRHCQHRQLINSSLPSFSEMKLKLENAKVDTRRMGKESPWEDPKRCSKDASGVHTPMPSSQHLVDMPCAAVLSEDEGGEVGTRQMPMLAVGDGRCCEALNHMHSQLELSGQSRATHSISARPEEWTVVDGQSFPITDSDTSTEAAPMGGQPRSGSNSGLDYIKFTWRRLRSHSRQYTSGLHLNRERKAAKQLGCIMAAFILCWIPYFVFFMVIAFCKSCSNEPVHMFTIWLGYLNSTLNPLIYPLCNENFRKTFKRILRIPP
T1 sequence (P41595 whole entry): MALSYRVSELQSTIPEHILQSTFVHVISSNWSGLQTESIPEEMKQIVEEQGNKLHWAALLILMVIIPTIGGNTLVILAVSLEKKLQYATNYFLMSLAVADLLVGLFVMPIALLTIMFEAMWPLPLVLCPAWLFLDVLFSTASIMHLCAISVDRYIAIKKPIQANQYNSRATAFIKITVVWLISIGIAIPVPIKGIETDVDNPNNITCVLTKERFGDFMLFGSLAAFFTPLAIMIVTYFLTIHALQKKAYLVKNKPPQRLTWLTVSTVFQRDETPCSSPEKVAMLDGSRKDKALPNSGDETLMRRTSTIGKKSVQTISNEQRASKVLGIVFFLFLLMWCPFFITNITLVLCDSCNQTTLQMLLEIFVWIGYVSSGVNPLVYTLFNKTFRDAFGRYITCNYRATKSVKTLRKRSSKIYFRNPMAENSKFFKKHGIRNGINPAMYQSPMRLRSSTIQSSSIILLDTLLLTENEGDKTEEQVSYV
Chain of 5-hydroxytryptamine receptor 7 (P34969 whole entry): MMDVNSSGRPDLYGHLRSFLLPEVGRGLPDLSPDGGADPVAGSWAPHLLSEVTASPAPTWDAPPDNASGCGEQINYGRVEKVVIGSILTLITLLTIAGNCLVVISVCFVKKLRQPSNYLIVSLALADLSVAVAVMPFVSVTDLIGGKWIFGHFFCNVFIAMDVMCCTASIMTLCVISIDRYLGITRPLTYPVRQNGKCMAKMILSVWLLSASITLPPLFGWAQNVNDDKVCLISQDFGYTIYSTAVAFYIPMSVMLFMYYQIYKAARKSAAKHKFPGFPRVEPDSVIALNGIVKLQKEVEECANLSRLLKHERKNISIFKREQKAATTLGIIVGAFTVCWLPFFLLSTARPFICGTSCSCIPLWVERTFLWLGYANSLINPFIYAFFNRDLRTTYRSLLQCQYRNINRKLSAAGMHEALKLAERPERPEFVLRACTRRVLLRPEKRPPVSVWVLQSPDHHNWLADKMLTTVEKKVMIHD
Chain of Sodium-dependent serotonin transporter (P31645 whole entry): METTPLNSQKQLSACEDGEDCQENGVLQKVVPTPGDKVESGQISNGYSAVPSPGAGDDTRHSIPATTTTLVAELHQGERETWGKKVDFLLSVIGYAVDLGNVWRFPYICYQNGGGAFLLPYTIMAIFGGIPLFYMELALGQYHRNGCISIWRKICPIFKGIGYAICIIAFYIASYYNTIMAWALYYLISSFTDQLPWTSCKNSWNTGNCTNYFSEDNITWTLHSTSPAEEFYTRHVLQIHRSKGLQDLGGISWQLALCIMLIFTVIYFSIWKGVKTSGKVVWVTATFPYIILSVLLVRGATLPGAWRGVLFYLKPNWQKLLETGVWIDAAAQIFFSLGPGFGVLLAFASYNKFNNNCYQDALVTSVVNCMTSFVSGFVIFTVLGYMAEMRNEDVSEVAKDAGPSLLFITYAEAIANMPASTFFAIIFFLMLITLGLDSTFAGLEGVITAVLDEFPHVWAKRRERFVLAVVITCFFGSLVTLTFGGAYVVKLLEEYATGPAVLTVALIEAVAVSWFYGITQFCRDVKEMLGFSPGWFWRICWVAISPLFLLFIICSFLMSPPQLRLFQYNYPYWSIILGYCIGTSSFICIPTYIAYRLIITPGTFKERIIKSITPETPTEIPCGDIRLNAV
Chain of Histamine H1 receptor (Cavia porcellus) (P31389 whole entry): as the sequence (P31389 whole entry) above
Chain of 5-hydroxytryptamine receptor 2A (P28223 whole entry): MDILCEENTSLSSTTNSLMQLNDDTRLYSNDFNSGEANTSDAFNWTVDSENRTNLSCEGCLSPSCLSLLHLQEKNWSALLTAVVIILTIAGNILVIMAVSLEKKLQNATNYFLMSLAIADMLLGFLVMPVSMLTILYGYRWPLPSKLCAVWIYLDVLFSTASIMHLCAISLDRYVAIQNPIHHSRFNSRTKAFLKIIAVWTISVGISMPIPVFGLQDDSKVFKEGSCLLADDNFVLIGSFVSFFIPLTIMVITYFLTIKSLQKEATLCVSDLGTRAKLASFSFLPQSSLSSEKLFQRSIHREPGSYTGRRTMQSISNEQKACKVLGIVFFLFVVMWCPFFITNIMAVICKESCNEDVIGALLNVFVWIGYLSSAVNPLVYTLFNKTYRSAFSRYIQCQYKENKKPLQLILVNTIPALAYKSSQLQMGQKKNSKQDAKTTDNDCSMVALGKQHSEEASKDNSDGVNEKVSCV
Chain of D(3) dopamine receptor (P35462 whole entry): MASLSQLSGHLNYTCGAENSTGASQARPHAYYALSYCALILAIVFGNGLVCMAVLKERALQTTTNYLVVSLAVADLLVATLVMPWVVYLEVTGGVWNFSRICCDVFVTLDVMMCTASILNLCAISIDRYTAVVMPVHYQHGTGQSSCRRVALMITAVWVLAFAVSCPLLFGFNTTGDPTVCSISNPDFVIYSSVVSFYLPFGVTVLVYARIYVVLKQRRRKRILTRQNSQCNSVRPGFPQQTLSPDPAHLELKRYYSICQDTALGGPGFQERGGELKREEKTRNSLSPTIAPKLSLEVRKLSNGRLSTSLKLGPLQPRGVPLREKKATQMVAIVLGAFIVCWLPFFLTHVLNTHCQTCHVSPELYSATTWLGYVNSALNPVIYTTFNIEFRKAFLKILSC

SMILES | Ki [1] | Activity [2] | Log Ki [4] | Activity [5] | Ki [7] | Ki [11] | Ki (Histamine H1 receptor) | other results
Fc1ccc(-c2cncc(CN3CCN(c4cccc5c4OCCO5)CC3)c2)cc1 [ADOPRAZINE] | 12.6 nM | inactive | -6.3 | inactive |  |  |  | Activity [3]: inactive
Cc1cc2c(s1)Nc1ccccc1N=C2N1CCN(C)CC1 [OLANZAPINE] |  |  |  |  |  |  |  | Log Ki [6]: -6.7
O=C1c2ccccc2C(=O)N1CCCCN1CC=C(c2c[nH]c3ccc(F)cc23)CC1 | 1.58 nM |  |  |  | 2.51 nM | 100 nM | 31.6 nM | Ki [8]: 39.8 nM; Ki (D(4) dopamine receptor): 79.4 nM; Ki [9]: 0.794 nM; Log Ki [10]: -6.6; Ki [12]: 100 nM; Ki [13]: 398 nM; Ki (D(3) dopamine receptor): 0.794 nM
Cc1nc2n(c(=O)c1CCN1CCC(c3noc4cc(F)ccc34)CC1)CCCC2 |  |  |  | inactive |  |  |  | 
O=C1Cc2cc(CCN3CCN(c4nsc5ccccc45)CC3)c(Cl)cc2N1 [ZIPRASIDONE] | 1.58 nM |  | -8.1 |  | 1.58 nM | 5.01 nM | 15.8 nM | Log Ki [6]: -6.4; Ki [13]: 63.1 nM
C[C@H]1Oc2c(cccc2N2CCN(CCCc3c[nH]c4ccc(F)cc34)CC2)NC1=O | 1 nM |  | -7.8 | inactive | 5.01 nM | 7.94 nM | 126 nM | Ki [8]: 200 nM; Ki (D(4) dopamine receptor): 1.58 nM; Ki [9]: 0.251 nM; Ki [12]: 20 nM; Ki (D(3) dopamine receptor): 0.501 nM
O=C(CCCN1CCC(O)(c2ccc(Cl)cc2)CC1)c1ccc(F)cc1 |  | inactive |  | inactive |  |  |  | Activity [14]: inactive
CCN1CCCC1CNC(=O)c1cc(S(=O)(=O)CC)c(N)cc1OC (stereo not given) [AMISULPRIDE] |  | inactive |  | inactive |  |  |  | Activity [3]: inactive; Log Ki [10]: -6.9
OCCOCCN1CCN(C2=Nc3ccccc3Sc3ccccc32)CC1 [QUETIAPINE] |  | inactive |  | inactive |  |  |  | 
